Experimental data as given in patent US8283358B2, “N-sulfonamido polycyclic pyrazolyl compounds” (Elan Pharmaceuticals, Inc., priority 2008, dated 2012).
Where two headings read alike, the source gives them in different places.

Biological target: T1, gamma-secretase (partially purified extract of IMR-32 cell membranes; substrate MBP-C125 Swe fusion protein, cleavage at the Aβ40 site) (Homo sapiens, UniProt P49768)
T1 construct: a partially purified extract of IMR-32 cell membranes as the gamma-secretase enzyme preparation; endogenous in cells; host or cells: IMR-32 cell membranes, partially purified extract
Assay: Gamma-secretase APP enzyme assay (Example A)
Format: biochemical
Settings: assay described in Example A
Source text: The gamma-secretase APP enzyme assay was designed to measure the specific proteolytic cleavage of an APP substrate (MBP-C125 Swe fusion protein) at the Aβ40 site. […] This assay involved two steps beginning with the enzymatic reaction generating a cleavage product that was captured with an immobilized antibody specific for the neo-epitope Aβ40 site. The captured cleavage product was then detected in a sandwich ELISA assay with a biotinylated reporter antibody that is specific to Aβ(17-28). Streptavidin-linked alkaline phosphatase was then added that would generate a fluorescent signal proportional to the amount of cleavage product.
This warmed solution of BigCHAPS (N,N-Bis(3-D-gluconamidopropyl)cholamide) detergent was used to dissolve Brain Extract Type-V (lipid containing a minimum of 40% phosphatidylethanolamine) from Sigma (St. Louis, Mo.) to a concentration of 8 mg/ml. This solution containing BigCHAPS and lipid at 8 mg/ml is then diluted to 0.53 mg/ml lipid with a pre-warmed solution of Hepes and sodium chloride.
Gamma-secretase was then added to a 96-well micro-titre plate and then incubated with various concentrations of inhibitor for 30 minutes at 37° C. MBPC125 substrate was then added to initiate the reaction that would run for two hours at 37° C. The reaction was quenched with the addition of SDS to a final concentration of 0.1% and then 100 μl of the reaction mixture was transferred to a capture ELISA plate and incubated overnight at 4° C. Detection of the cleavage product was performed using a standard sandwich ELISA assay and quantified using a six point standard curve.

[1] = class symbols, read-out: γAPP IC50

| IC50 [1] [nM] | Compound | further results |
| --- | --- | --- |
| < 100 | O=S(=O)(c1ccc(C(F)(F)F)nc1)N1C2Cc3[nH]ncc3C1c1ccccc12 (centres unmarked) [compound 98] | – |
| < 100 | O=S(=O)(c1ccc(C(F)(F)F)nc1)N1C2Cc3[nH]ncc3C1c1c(C3CC3)cccc12 (racemic) [compound 274] | – |
| < 100 | O=S(=O)(c1ccc(C(F)(F)F)cc1)N1C2Cc3[nH]ncc3C1c1cc3c(cc12)OCO3 (racemic) [compound 91] | – |
| 100 to 499 | Cc1noc(-c2cccc3c2C2Cc4[nH]ncc4C3N2S(=O)(=O)c2ccc(C(F)(F)F)nc2)n1 (centres unmarked) [compound 235] | – |
| – | Cc1cc(F)cc2c1C1c3c[nH]nc3CC2N1S(=O)(=O)c1ccc(C(F)(F)F)nc1 (centres unmarked) [compound 158] | IC50 (numeric bounds given instead of class symbols, read-out: γAPP IC50): > 10 nM |
| < 100 | O=S(=O)(c1ccc(C(F)(F)F)cc1)N1C2Cc3[nH]ncc3C1c1ccc3ccccc3c12 (centres unmarked) [compound 168] | – |
| < 100 | O=C1c2n[nH]cc2C2c3ccccc3C1N2S(=O)(=O)c1ccc(C(F)(F)F)nc1 (centres unmarked) [compound 200] | – |
| 100 to 499 | O=S(=O)(c1ccc(C(F)(F)F)nc1)N1C2Cc3[nH]ncc3C1c1cccc(Cl)c12 (centres unmarked) [compound 229] | – |
| < 100 | O=C1c2n[nH]cc2C2c3c(F)cccc3C1N2S(=O)(=O)c1ccc(C(F)(F)F)cc1 (centres unmarked) [compound 103] | – |
| < 100 | COC(=O)c1cccc2c1C1Cc3[nH]ncc3C2N1S(=O)(=O)c1ccc(C(F)(F)F)nc1 (centres unmarked) [compound 226] | – |
| – | O=S(=O)(c1ccc(C(F)(F)F)nc1)N1C2Cc3n[nH]cc3C1c1c(F)cccc12 (centres unmarked) [compound 130] | IC50 (γAPP IC50 (nM), class symbols): < 100 nM |
| < 100 | O=S(=O)(c1ccc(C(F)(F)F)nc1)N1C2Cc3[nH]ncc3C1c1cc(Cl)ccc12 (racemic) [compound 219] | – |
| 100 to 499 | O=S(=O)(c1ccc(C(F)(F)F)cc1)N1C2Cc3[nH]ncc3C1CC(c1ccc(-n3cncn3)cc1)C2 (racemic) [compound 147] | – |
| 100 to 499 | CC(=O)c1ccc(C2CC3Cc4[nH]ncc4C(C2)N3S(=O)(=O)c2ccc(C(F)(F)F)cc2)cc1 (racemic) [compound 154] | – |
| < 100 | O=S(=O)(c1ccc(C(F)(F)F)nc1)N1C2Cc3n[nH]cc3C1c1cccc(F)c12 (single isomer, unassigned) [compound 185] | – |
| < 100 | O=C1c2n[nH]cc2C2c3cccc(F)c3C1N2S(=O)(=O)c1ccc(C(F)(F)F)cc1 (centres unmarked) [compound 104] | – |
| > 1000 | O=S(=O)(c1ccc(C(F)(F)F)nc1)N1C2Cc3n[nH]cc3C1c1nc(Br)ccc12 (single isomer, unassigned) [compound 249] | – |
| > 1000 | O=S(=O)(c1ccc(C(F)(F)F)nc1)N1[C@@H]2c3cn[nH]c3[C@H](F)[C@H]1c1cccc(F)c12 [compound 268] | – |
| < 100 | O=S(=O)(c1ccc(C(F)(F)F)nc1)N1C2Cc3[nH]ncc3C1c1cccc(C3CC3)c12 (racemic) [compound 270] | – |
| – | Cn1ncc2c1C1Cc3[nH]ncc3C2N1S(=O)(=O)c1ccc(C(F)(F)F)nc1 (racemic) [compound 204] | IC50 (γAPP IC50 (nM), class symbols): < 100 nM |
| < 100 | O=S(=O)(c1ccc(C(F)(F)F)cc1)N1C2Cc3n[nH]cc3C1CC(c1cccc(Br)c1)C2 (centres unmarked) [compound 125] | – |
| < 100 | O=S(=O)(c1ccc(C(F)(F)F)cc1)N1C2c3c[nH]nc3C(F)(F)C1c1cccc(F)c12 (centres unmarked) [compound 128] | – |
| < 100 | O=S(=O)(c1ccc(C(F)(F)F)nc1)N1C2Cc3[nH]ncc3C1c1cc(F)ccc12 (racemic) [compound 176] | – |
| > 1000 | COC(=O)c1ccc2c(c1)C1c3cn[nH]c3CC2N1S(=O)(=O)c1ccc(C(F)(F)F)nc1 (racemic) [compound 194] | – |
| 500 to 999 | O=S(=O)(c1ccc(C(F)(F)F)nc1)N1C2Cc3[nH]ncc3C1c1c(Cl)cccc12 (single isomer, unassigned) [compound 232] | – |
| < 100 | O=C(O)COCCNc1ccc(C2CC3Cc4[nH]ncc4C(C2)N3S(=O)(=O)c2ccc(C(F)(F)F)cc2)cc1 (racemic) [compound 145] | – |
| – | O=S(=O)(c1ccc(C(F)(F)F)cc1)N1C2Cc3n[nH]cc3C1c1c(F)cccc12 (centres unmarked) [compound 96] | IC50 (γAPP IC50 (nM), class symbols): < 100 nM |

| IC50 [1] [nM] | Compound | further results |
| --- | --- | --- |
| 100 to 499 | O=S(=O)(c1ccc(C(F)(F)F)cc1)N1C2Cc3[nH]ncc3C1c1c2ccc2ccccc12 (centres unmarked) [compound 171] | – |
| < 100 | O=S(=O)(c1ccc(C(F)(F)F)nc1)N1C2Cc3cccc(Br)c3C1c1cn[nH]c1C2 (centres unmarked) [compound 218] | – |
| – | O=S(=O)(c1ccc(C(F)(F)F)nc1)N1C2Cc3n[nH]cc3C1c1c(F)cccc12 (centres unmarked) [compound 129] | IC50 (γAPP IC50 (nM), numeric bounds given instead of class symbols): > 10 nM |
| < 100 | O=S(=O)(c1ccc(C(F)(F)F)nc1)N1C2Cc3c(C4CC4)cccc3C1Cc1n[nH]cc12 (centres unmarked) [compound 135] | – |
| > 1000 | O=S(=O)(c1ccc(C(F)(F)F)nc1)N1C2c3c[nH]nc3[C@H](O)C1c1cccc(F)c12 (some centres unmarked) [compound 237] | – |
| > 1000 | O=S(=O)(c1ccc(C(F)(F)F)nc1)N1C2Cc3[nH]ncc3C1c1cc(C3CC3)ccc12 (single isomer, unassigned) [compound 246] | – |
| > 1000 | Cn1cc(C2CC3Cc4[nH]ncc4C(C2)N3S(=O)(=O)c2ccc(Cl)cc2)nn1 (single isomer, unassigned) [compound 137] | – |
| < 100 | CC12C(=O)c3[nH]ncc3C(c3ccccc31)N2S(=O)(=O)c1ccc(C(F)(F)F)nc1 (centres unmarked) [compound 275] | – |
| – | O=S(=O)(c1ccc(C(F)(F)F)cc1)N1C2Cc3n[nH]cc3C1c1c(F)cccc12 (single isomer, unassigned) [compound 115] | IC50 (γAPP IC50 (nM), class symbols): < 100 nM |
| – | O=S(=O)(c1ccc(C(F)(F)F)nc1)N1C2Cc3n[nH]cc3C1c1ncsc12 (centres unmarked) [compound 189] | IC50 (γAPP IC50 (nM), class symbols): 100 to 499 nM |
| < 100 | O=S(=O)(c1ccc(C(F)(F)F)nc1)N1C2Cc3[nH]ncc3C1c1ccc(Cl)cc12 (single isomer, unassigned) [compound 224] | – |
| < 100 | O=S(=O)(c1ccc(C(F)(F)F)cc1)N1C2Cc3[nH]ncc3C1CC(c1cccc(-n3ccnc3)c1)C2 (centres unmarked) [compound 132] | – |
| < 100 | O=S(=O)(c1ccc(C(F)(F)F)nc1)N1C2Cc3[nH]ncc3C1c1ccccc12 (centres unmarked) [compound 197] | – |
| < 100 | O=C1c2[nH]ncc2C2c3c(F)cccc3C1N2S(=O)(=O)c1ccc(Cl)cc1 (centres unmarked) [compound 242] | – |
| > 1000 | O=S(=O)(c1ccc(C(F)(F)F)nc1)N1C2c3c[nH]nc3[C@H](O)C1c1c(F)cccc12 (some centres unmarked) [compound 239] | – |
| – | O=S(=O)(c1ccc(C(F)(F)F)cc1)N1C2Cc3n[nH]cc3C1c1c(F)cccc12 (single isomer, unassigned) [compound 114] | IC50 (γAPP IC50 (nM), class symbols): 500 to 999 nM |
| > 1000 | O=S(=O)(c1ccc(C(F)(F)F)cc1)N1C2Cc3[nH]ncc3C1c1cccnc12 (single isomer, unassigned) [compound 99] | – |
| < 100 | O=S(=O)(c1ccc(C(F)(F)F)cc1)N1C2C=C(C3CC3)C1c1c[nH]nc1C2 (centres unmarked) [compound 44] | – |
| < 100 | O=S(=O)(c1ccc(C(F)(F)F)nc1)N1C2Cc3cccc(Br)c3[C@@H]1Cc1n[nH]cc12 [compound 212] | – |
| < 100 | COC(=O)c1cccc2c1C1Cc3[nH]ncc3C2N1S(=O)(=O)C1=CC=C(C(F)(F)F)NC1 (racemic) [compound 253] | – |
| < 100 | O=S(=O)(c1ccc(C(F)(F)F)cc1)N1C2Cc3[nH]ncc3C1c1cc(C(F)(F)F)ccc12 (racemic) [compound 155] | – |
| 500 to 999 | O=S(=O)(c1ccc(C(F)(F)F)nc1)N1C2Cc3n[nH]cc3C1c1cccc(F)c12 (single isomer, unassigned) [compound 184] | – |
| > 1000 | O=S(=O)(c1ccc(C(F)(F)F)nc1)N1C2Cc3[nH]ncc3C1c1nc(C3CC3)ccc12 (centres unmarked) [compound 256] | – |
| 100 to 499 | O=S(=O)(c1ccc(C(F)(F)F)nc1)N1C2c3c[nH]nc3[C@@H](O)C1c1c(F)cccc12 (some centres unmarked) [compound 216] | – |
| > 1000 | Cc1noc(-c2ccc3c(c2)C2c4cn[nH]c4CC3N2S(=O)(=O)c2ccc(C(F)(F)F)nc2)n1 (centres unmarked) [compound 201] | – |
| < 100 | O=S(=O)(c1ccc(C(F)(F)F)cc1)N1C2Cc3[nH]ncc3C1c1c2ccc2ccccc12 (centres unmarked) [compound 170] | – |

| Compound | IC50 [1] [nM] | further results |
| --- | --- | --- |
| O=C1c2[nH]ncc2C2c3cccc(F)c3C1N2S(=O)(=O)c1ccc(C(F)(F)F)nc1 (single isomer, unassigned) [compound 192] | < 100 | – |
| O=C1c2[nH]ncc2C2c3cccc(F)c3C1N2S(=O)(=O)c1ccc(C(F)(F)F)nc1 (single isomer, unassigned) [compound 193] | 500 to 999 | – |
| O=S(=O)(c1ccc(C(F)(F)F)nc1)N1C2Cc3[nH]ncc3C1c1cc(-c3ccc(F)cc3)ccc12 (single isomer, unassigned) [compound 244] | > 1000 | – |
| O=S(=O)(c1ccc(C(F)(F)F)nc1)N1C2Cc3[nH]ncc3C1c1cc(Br)ccc12 (centres unmarked) [compound 250] | < 100 | – |
| O=S(=O)(c1ccc(C(F)(F)F)cc1)N1C2Cc3[nH]ncc3C1CC(c1cccc(-n3cccn3)c1)C2 (centres unmarked) [compound 133] | < 100 | – |
| O=S(=O)(c1ccc(C(F)(F)F)cc1)N1C2Cc3[nH]ncc3C1c1cccc(-c3cccc(C(F)(F)F)c3)c1C2 (racemic) [compound 178] | < 100 | – |
